Source: PMC7026080, “Phenotypic high-throughput screening platform identifies novel chemotypes for necroptosis inhibition” (Cell Death Discovery, 2020)
pEC50: −log10 of the molar value. Read-outs that look alike come from different tables or passages of the source.

Legend:
[1] = Human microsomal clearance (in vitro); assay type: in vitro ADME; settings: microsomes, read-out: Human microsomal clearance (in vitro) rate
[2] = system: TNF-α-induced SIRS; experiment: TNF-α-induced systemic inflammatory response syndrome (SIRS) in mice; assay type: in vivo, mouse; settings: 5 mg/kg i.v. 15 min before mTNF-α 0.38 mg/kg; C57BL/6J mice
Text: To confirm that the screening strategy leads to hits functionally active in vivo, we tested one of the hits for its ability to protect against RIPK-driven inflammation in TNF-α-induced systemic inflammatory response syndrome (SIRS). This mouse model of sterile sepsis[32] is dependent on RIPK1 and RIPK3 kinase activity and independent of apoptosis and inflammasome activity.
Representative blots and quantification of p-RIPK3/RIPK3 and p-MLKL/MLKL ratios in fold-change from control. Blots were normalized to endogenous β-actin.
Nec-1 was positive control for TNF-induced SIRS protection. Body temperature and mortality were monitored up to 96 h. Further details are provided as Supplementary Information.
Animal studies, injections and monitoring. Male C57BL/6J mice with 18-26 g (Charles River Laboratories International, Inc., Wilmington, MA, USA) were used at the age of 8-14 weeks. Five to seven animals were included in each experimental group. All animal experiments were carried out with the permission of local animal ethical committee in accordance with the EU Directive (2010/63/EU), Portuguese laws (DL113/2013, 2880/2015, 260/2016) and all relevant legislations. Animals received humane care in a temperature-controlled environment with a 12 h light-dark cycle and ad libitum access to pelleted chow and water, complying with the Institute’s guidelines, and as outlined in the “Guide for the Care and Use of Laboratory Animals” prepared by the National Academy of Sciences and published by the National Institutes of Health (NIH publication 86-23 revised 1985). […] Nec-1 was diluted as follows (v/v): 48% PBS 1X, 17% DMSO and 35% PEG 400. […] All injections were administered intravenously (i.v.) in 100 µL volume each. Body temperature was recorded on mice pre-shaven back using a non-contact infrared thermometer suitable for animal use (BIO-IRB153; BioSeb, Vitrolles, France). Body temperature and mortality were monitored up to 96 h. Animals were euthanized by inhalative induction of narcosis with isoflurane at the end of the experiment, or at humane endpoints according to the Clinical Severity Score ^59.

[3] = system: Jurkat FADD-/- cells; experiment: Necroptosis inhibition in Jurkat FADD-/- cells + TNF-α, 8 h, AK release; assay type: cell-based; settings: Homo sapiens; for pEC50: 8 h, screening step 2, AK release, read-out: EC50 Jurkat FADD(-/-) + TNF-α (in vitro); for EC50: read-out: Jurkat FADD (-/-) (in vitro) pEC50 (converted)
Procedure: The second screening step aimed to determine the EC50 of selected compounds. L929 and Jurkat FADD^-/- cells were co-incubated with TNF-α and test compounds at 10-point concentration range (0.004–100 μM) for 8 h. Compound-mediated inhibition of necroptosis was assessed through AK release and the EC50 calculated. Jurkat cells were used to validate results in human cells. […] In HTS step two, 4374 compounds (3353 hits from HTS step one plus 1021 near neighbours) were evaluated for potency by dose-response curves. From those, 1,438 hit compounds passed the selection criteria on both cell lines, corresponding to a […] hit rate.
L929 cells were co-incubated for 8 h with mTNF-α and test compounds at 31.7 μM after which AK release was measured. […] Hit compounds were then evaluated for apoptosis modulation. Further details are provided as Supplementary Information.
Cell treatments and viability assays. Cells were seeded in 384- or 96-well plates at 1000 or 8000 cells/well (in 12.5 μL or 100 μL final volume), respectively, using a Multidrop^TM Combi Reagent Dispenser (ThermoFisher Scientific). For inducing necroptosis, L929 and Jurkat FADD^-/- cells were incubated with 10 ng/mL mTNF-α and hTNF-α respectively; BV2 cells with 25 µM Z-VAD-FMK, and HT29 cells with 20 ng/mL hTNF-α, 250 nM Smac mimetic BV6 and 10 μM Z-VAD-FMK. Cells were co-incubated in the presence of test compounds at target concentrations for 8 or 24 h. Nec-1 at 29.2 μM was used as positive control. For apoptosis assays, Jurkat E6.1 cells were co-incubated with 0.5 μg/mL CHX and test compounds at target concentrations for 8 h. […]
Adenylate kinase (AK) and lactate dehydrogenase (LDH) release from damaged cells were measured using the Toxilight BioAssay Kit (Lonza, Basel, Switzerland) and the Cytotoxicity Detection Kit (Roche Diagnostics GmbH, Mannheim, Germany), respectively. Adenosine triphosphate (ATP) metabolism was evaluated using CellTiter-Glo^TM Luminescent Cell Viability Assay (Promega, Madison, WI, USA). Apoptosis was determined by the measurement of caspase-3/-7 activity using the Caspase-Glo® 3/7 Assay (Promega) according to the manufacturer’s instructions. Cellular metabolic activity was measured using CellTiter 96® Aqueous Non-Radioactive Cell Proliferation (MTS) Assay (Promega). Luminescence signal was recorded using a GloMax®-MultiDetection System (Promega) and absorbance with a Model 680 microplate reader (Bio-Rad Laboratories Inc, Hercules, CA, USA).
Primary high-throughput screen. […] Eight hours after co-incubation of L929 cells with mTNF-α and test compounds, AK release was evaluated. […] Eight hours after co-incubation of L929 or Jurkat FADD^-/- cells with TNF-α and test compounds, AK release was evaluated. […]

[4] = MDCK-MDR1 cell-based permeability assay; assay type: in vitro ADME; settings: dog

CN1C(=O)C(Cc2c[nH]c3ccccc23)NC1=S (centres unmarked) [Nec-1, necrostatin-1]
microsomal CLint [1]: 59 µL/min/mg | Survival in TNF-α-induced SIRS [2]: all survived | TNF-α shock-associated hypothermia (body temperature) [2]: fully protected from hypothermia | pEC50 [3]: 6.41 | EC50 [3]: 398 nM | Papp A→B [4]: 31 ×10⁻⁶ cm/s | Papp B→A [4]: 34 ×10⁻⁶ cm/s

O=C(c1cnn(Cc2ccccc2)c1)N1CCOc2ccccc2C1 [SN-6109]
microsomal CLint [1]: 42 µL/min/mg | Survival in TNF-α-induced SIRS [2]: ~50% | TNF-α shock-associated hypothermia (body temperature) [2]: gradually recovered their basal temperature in 48 h post-injection | pEC50 [3]: 6.20 | EC50 [3]: 631 nM | Papp A→B [4]: 35 ×10⁻⁶ cm/s | Papp B→A [4]: 18 ×10⁻⁶ cm/s
